From ChEMBL document CHEMBL1201862, “PubChem BioAssay data set” (2004)
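Values below derive from 48-hour exposures of cells grown in 96-well plates, with endpoints linearly interpolated between the two concentrations bracketing the appropriate inhibition level. Abbreviation: GI50, concentration required for 50% inhibition of growth.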 Active and inactive are the calls of the source. Cut-off read from the data, not from the text of the source: active = GI50 up to about 1.1 µM and inactive = higher.

Assays:
Assay in all cases: inhibition of tumour cell growth, NCI panel, 48 h
SK-MEL-5 = tested on: SK-MEL-5
OVCAR-5 = tested on: OVCAR-5
A498 = tested on: A498
ACHN = tested on: ACHN
EKVX = tested on: EKVX
CAKI-1 = tested on: CAKI-1
OVCAR-4 = tested on: OVCAR-4
SK-MEL-2 = tested on: SK-MEL-2
SF-295 = tested on: SF-295
NCI-H460 = tested on: NCI-H460
OVCAR-8 = tested on: OVCAR-8
HCC 2998 = tested on: HCC 2998
IGROV-1 = tested on: IGROV-1
SNB-75 = tested on: SNB-75
SK-OV-3 = tested on: SK-OV-3
Hs-578T = tested on: Hs-578T
MDA-MB-231 = tested on: MDA-MB-231
NCI/ADR-RES = tested on: NCI/ADR-RES
MDA-N = tested on: MDA-N

Structure (SMILES) | GI50 (SK-MEL-5) | GI50 (OVCAR-5) | GI50 (A498) | GI50 (ACHN) | GI50 (EKVX) | GI50 (CAKI-1) | GI50 (OVCAR-4) | GI50 (SK-MEL-2) | GI50 (SF-295) | GI50 (NCI-H460) | GI50 (OVCAR-8) | GI50 (HCC 2998) | GI50 (IGROV-1) | GI50 (SNB-75) | GI50 (SK-OV-3) | GI50 (Hs-578T) | GI50 (MDA-MB-231) | GI50 (NCI/ADR-RES) | GI50 (MDA-N)
CCN1CCC(O)(c2ccccc2)C(C(=O)c2ccccc2)C1 (stereo not given) | 33.7 µM (inactive) | 18.2 µM (inactive) | > 100 µM (inactive) | 16.7 µM (inactive) | > 49.2 µM (inactive) | 14 µM (inactive) | 18.2 µM (inactive) | > 100 µM (inactive) | > 65.6 µM (inactive) | > 100 µM (inactive) | 26.4 µM (inactive) | > 100 µM (inactive) | > 100 µM (inactive) | > 89.3 µM (inactive) | > 100 µM (inactive) |  |  |  | 
O=C1c2cc3c(cc2CC12Cc1cc4c(cc1C2=O)CCC4)CCCC3 (stereo not given) | > 100 µM (inactive) | > 100 µM (inactive) | > 100 µM (inactive) | > 100 µM (inactive) | 95.1 µM (inactive) | > 100 µM (inactive) | > 100 µM (inactive) | > 100 µM (inactive) | > 100 µM (inactive) | > 100 µM (inactive) | > 100 µM (inactive) | > 100 µM (inactive) | > 100 µM (inactive) | > 100 µM (inactive) | > 100 µM (inactive) | > 100 µM (inactive) | > 100 µM (inactive) | > 100 µM (inactive) | > 100 µM (inactive)
CCn1c2nc(=O)n(CCCCCCCCSC(c3ccccc3)(c3ccccc3)c3ccccc3)c(=O)c-2nc2ccccc21 | 3.44 µM (inactive) | > 100 µM (inactive) | 37.8 µM (inactive) | 3.21 µM (inactive) | 7.83 µM (inactive) | 5.22 µM (inactive) | 9.53 µM (inactive) | 8.41 µM (inactive) | 20.4 µM (inactive) | 4.62 µM (inactive) | 43.6 µM (inactive) | 2.67 µM (inactive) | 31.3 µM (inactive) |  | 82.8 µM (inactive) | 3.33 µM (inactive) | 45.4 µM (inactive) | > 100 µM (inactive) | 7.14 µM (inactive)
C=C(C#N)C1OCC2OC(C)(C)OC21 (stereo not given) | 17.3 µM (inactive) | 19.8 µM (inactive) | 22.2 µM (inactive) | 20.7 µM (inactive) | 24.4 µM (inactive) | 23.4 µM (inactive) | 19.4 µM (inactive) | 27.4 µM (inactive) | 45.9 µM (inactive) | 24.9 µM (inactive) | 21.5 µM (inactive) | 26.7 µM (inactive) | 37.4 µM (inactive) | 20.1 µM (inactive) | 50.6 µM (inactive) |  |  |  | 
O=C(CC(C(=O)c1cccs1)c1ccsc1)c1ccccc1 (stereo not given) | 76.9 µM (inactive) | > 100 µM (inactive) | 51.8 µM (inactive) | 69.5 µM (inactive) | > 100 µM (inactive) | > 100 µM (inactive) | 24 µM (inactive) |  | > 100 µM (inactive) | 51.4 µM (inactive) | > 100 µM (inactive) | > 100 µM (inactive) | > 100 µM (inactive) | > 100 µM (inactive) | > 100 µM (inactive) | > 100 µM (inactive) | 17.5 µM (inactive) | 25.1 µM (inactive) | 37.5 µM (inactive)
O=C(O)CC12C3C4C5C3C1C5C42 (stereo not given) | > 100 µM (inactive) | > 100 µM (inactive) | > 100 µM (inactive) | > 100 µM (inactive) | > 100 µM (inactive) | > 100 µM (inactive) | > 100 µM (inactive) | > 100 µM (inactive) | > 100 µM (inactive) | > 100 µM (inactive) | > 100 µM (inactive) | > 100 µM (inactive) | > 100 µM (inactive) | 76.2 µM (inactive) | > 100 µM (inactive) |  |  |  | 
CCCCCCCCCCCCCC1CCC(CC)N1 (stereo not given) | 17.8 µM (inactive) | 16.6 µM (inactive) | 21.4 µM (inactive) | 7.23 µM (inactive) | 16.9 µM (inactive) | 15.8 µM (inactive) | 17.4 µM (inactive) | 21.8 µM (inactive) | 18.6 µM (inactive) | 2.12 µM (inactive) | 20 µM (inactive) | 2.41 µM (inactive) | 20.9 µM (inactive) | 7.28 µM (inactive) | 17 µM (inactive) |  |  |  | 
O=[N+]([O-])/C(C(Cl)=C(Cl)Cl)=C(\SCc1ccccc1)N1CCCCC1 | 15.8 µM (inactive) | 20.4 µM (inactive) | 31.9 µM (inactive) | 17.4 µM (inactive) | 70.3 µM (inactive) | > 100 µM (inactive) | 15 µM (inactive) | 21.5 µM (inactive) | 38.5 µM (inactive) | 23.8 µM (inactive) | 20.6 µM (inactive) | 23.4 µM (inactive) | 24.6 µM (inactive) |  | 40 µM (inactive) | 27.5 µM (inactive) | 13.3 µM (inactive) |  | 17.5 µM (inactive)
Cc1ccc(/N=c2/oc3c(ccc4ccccc43)nc2Nc2ccc(C)cc2)cc1 | > 100 µM (inactive) | > 100 µM (inactive) | > 100 µM (inactive) | 80.4 µM (inactive) | > 100 µM (inactive) | > 100 µM (inactive) | > 100 µM (inactive) | > 100 µM (inactive) | > 100 µM (inactive) | > 100 µM (inactive) | > 100 µM (inactive) | > 100 µM (inactive) | > 100 µM (inactive) | > 100 µM (inactive) | > 100 µM (inactive) | > 100 µM (inactive) | > 100 µM (inactive) | > 100 µM (inactive) | > 100 µM (inactive)
NCCCNOCCCN | > 100 µM (inactive) | > 100 µM (inactive) | > 100 µM (inactive) | > 100 µM (inactive) |  | > 100 µM (inactive) | > 100 µM (inactive) | > 100 µM (inactive) | > 100 µM (inactive) | > 100 µM (inactive) | > 100 µM (inactive) | > 100 µM (inactive) |  |  | > 100 µM (inactive) |  | > 100 µM (inactive) | > 100 µM (inactive) | > 100 µM (inactive)
CC(=O)OC1COC(n2ccc3cc(Br)c([N+](=O)[O-])cc32)C(OC(C)=O)C1OC(C)=O (stereo not given) | > 10 µM (inactive) |  | 19.1 µM (inactive) | 27.6 µM (inactive) | 39.4 µM (inactive) | 33.7 µM (inactive) | > 10 µM (inactive) | > 10 µM (inactive) | 20.9 µM (inactive) | 22 µM (inactive) | 22.4 µM (inactive) | 24 µM (inactive) | 30.3 µM (inactive) | 23.1 µM (inactive) | 31.8 µM (inactive) |  |  |  | 
CC1(Cl)C(=O)NC(=O)N(C2CC(N=[N+]=[N-])C(CO)O2)C1N=[N+]=[N-] (stereo not given) | > 100 µM (inactive) | > 100 µM (inactive) | > 100 µM (inactive) | > 100 µM (inactive) | > 100 µM (inactive) | > 100 µM (inactive) | > 100 µM (inactive) | > 100 µM (inactive) | > 100 µM (inactive) | > 100 µM (inactive) | > 100 µM (inactive) | > 100 µM (inactive) | > 100 µM (inactive) | > 100 µM (inactive) | > 100 µM (inactive) |  |  |  | 
CCOC(=O)C(CNc1ccc(O)cc1)NC(=O)c1ccccc1 (stereo not given) | > 100 µM (inactive) | > 100 µM (inactive) | > 100 µM (inactive) | 54.8 µM (inactive) | > 100 µM (inactive) | > 100 µM (inactive) | > 66.2 µM (inactive) | > 100 µM (inactive) | > 100 µM (inactive) | > 100 µM (inactive) | > 100 µM (inactive) | > 100 µM (inactive) | > 100 µM (inactive) | > 100 µM (inactive) | > 100 µM (inactive) |  |  |  | 
Cc1c(NC(=O)CCCl)c(=O)oc2c(C)c3occc(=O)c3cc12 | 36.8 µM (inactive) | > 100 µM (inactive) | 19.7 µM (inactive) | 45.5 µM (inactive) | > 100 µM (inactive) | 42.1 µM (inactive) | > 100 µM (inactive) |  | 33 µM (inactive) | 51.2 µM (inactive) | > 100 µM (inactive) | > 100 µM (inactive) | 97.5 µM (inactive) | 42.2 µM (inactive) | 86.9 µM (inactive) | 35.5 µM (inactive) |  | > 100 µM (inactive) | 47.9 µM (inactive)
O=C1OC(c2ccccc2)=N/C1=C/N1CCCC1C(=O)O (stereo not given) | > 100 µM (inactive) | > 100 µM (inactive) | > 100 µM (inactive) | > 100 µM (inactive) | > 100 µM (inactive) | > 100 µM (inactive) | > 100 µM (inactive) | > 100 µM (inactive) | > 100 µM (inactive) | > 100 µM (inactive) | > 100 µM (inactive) | > 100 µM (inactive) | > 100 µM (inactive) | > 100 µM (inactive) | > 100 µM (inactive) |  |  |  | 
O=C1C=C2S[C@H]3C[C@]2(C=C1Br)C1=C(N3)C(=O)c2[nH]cc3c2C1=NCC3 [(+)-DISCORHABDIN B] | 1.04 µM (active) | 1.85 µM (inactive) | 5.65 µM (inactive) | 0.632 µM (active) | 1.68 µM (inactive) | 1.69 µM (inactive) | 0.218 µM (active) | 0.469 µM (active) | 1.5 µM (inactive) | 3.05 µM (inactive) | 0.541 µM (active) | 2.3 µM (inactive) | 1.53 µM (inactive) | 1.55 µM (inactive) | 5.62 µM (inactive) | 1.5 µM (inactive) | 0.305 µM (active) | 0.205 µM (active) | 0.165 µM (active)
CN/C(=N\CCSCc1nc[nH]c1C)NC#N [CIMETIDINE] | > 100 µM (inactive) | > 100 µM (inactive) | 91.6 µM (inactive) | > 100 µM (inactive) | > 10 µM (inactive) | > 100 µM (inactive) | 99.5 µM (inactive) | > 100 µM (inactive) | > 100 µM (inactive) | > 100 µM (inactive) | > 100 µM (inactive) | > 100 µM (inactive) | > 100 µM (inactive) | 33.3 µM (inactive) | > 100 µM (inactive) | > 100 µM (inactive) | > 100 µM (inactive) | > 100 µM (inactive) | > 100 µM (inactive)
